In US6031071A, “Methods of generating novel peptides” (Biophage, Inc., priority 1996, dated 2000):
Entries after “also recorded” stand apart in the source; their conditions may differ.

What was measured:
[1] = ELISA control empty wells (plastic binding)
Method: Phages from the second PEG precipitation (Parmley & Smith, Gene, 73: 305-318 (1988)) were dissolved in 210 μl of 0.15 M NaCl, microfuged for 1 min, precipitated from 200 μl of the supernatant by the addition of 21.2 μl of 1 M acetic acid, and by incubation for 10 min at room temperature and 10 min on ice. (Scott & Smith, Science, 249: 386-390 (1990)). Phages were sedimented (microfuged, 45 min, 4 C.) and dissolved in 60 μl of TBS. Phage concentration was determined as described in Parmley & Smith, Gene, 73: 305-318 (1988). These partially purified phages were subjected to one round of screening, except that the phages were not acid eluted. Instead, blocking solution [250 μl of nonfat dry milk ([…]) in 0,05% TWEEN20 ™/TBS (TWEEN20 ™: Polysorbate 20)] was added to the wells. After a 2-h incubation at room temperature, wells were washed three times in 0.05% TWEEN20 ™/TBS. Rabbit anti-phage fd-ted serum, 100 μl of a 1:1000 dilution (in blocking solution) was added to wells and incubated overnight. Wells were washed seven times in 0.05% TWEEN20 ™/TBS and once with TBS; 100 μl of a peroxidase-conjugated goat anti-rabbit immunoglobulin were then added (Kirkegaard & Perry Labs, Maryland, USA, diluted 1:1000). […] To reveal the reaction, 100 μl of ABTS solution (Kirkegaard & Perry Labs, Maryland, USA) were added, incubated for 30 min at room temperature, and read in a microplate reader. […]

[2] = ELISA of phage binding to immobilized doxo-BSA, detected with polyclonal anti-phage serum; conditions: result in words
Method: In order to characterize the binding of individual clones, four different clones V6, V10, V12 and A4 together with the control phage X1 were analyzed for binding to doxorubicin in an ELISA experiment in which polyclonal anti-phage antibodies were used to detect bound phages. Antisera were raised against fd-Tet phage lacking insertion into pIII. Three rabbits were injected intramuscularly with 0.5 mg of fd-ted phages in Freunds complete adjuvant and then boosted three times with 0.25 mg of fd-ted phages in incomplete adjuvant at 3 weeks intervals. The titer of the antisera was measured with an ELISA using phage immobilized in Maxisorb microtiter wells as described (Motti et al., Gene, 146: 91-198 (1994)). All rabbits produced high titer antisera after the second boost. […]
Phages from the second PEG precipitation (Parmley & Smith, Gene, 73: 305-318 (1988)) were dissolved in 210 μl of 0.15 M NaCl, microfuged for 1 min, precipitated from 200 μl of the supernatant by the addition of 21.2 μl of 1 M acetic acid, and by incubation for 10 min at room temperature and 10 min on ice. […] Phage concentration was determined as described in Parmley & Smith, Gene, 73: 305-318 (1988). […] To reveal the reaction, 100 μl of ABTS solution (Kirkegaard & Perry Labs, Maryland, USA) were added, incubated for 30 min at room temperature, and read in a microplate reader. […]

[3] = molecular target: phage V6 (peptide V6) binding to doxorubicin; assay: Displacement assay: inhibition of V6 phage binding to doxorubicin-BSA coated wells by drugs; conditions: for IC50: read-out: IC50 for inhibiting the binding of phages V6 to doxorubicin; for blocking/displacement of the interaction of the phage with doxorubicin: result in words
Method: Phage V6 (10^10 virions) was preincubated for 1 hr at room temperature in 100 μl of 0.1% BSA/PBS buffer containing different drug concentrations (10^-4 M to 10^-9 M), and aliquots were added to microtiter wells, which were […] with doxorubicin-BSA as previously described in Example II. After a 1-h incubation at room temperature, the wells were washed 12 times with PBS and the remaining bound phages eluted with 50 μl of 0.1 M HCl (pH adjusted to 2.2 with glycine). The phages were quantitated by titration on log phase of E. coli K91Kan cells plated on LB plates with […] tetracycline (Parmley & Smith, Gene, 73: 305-318 (1988)).

[4] = phage V6 10^10 virions preincubated 1 hr with drug 10^-4 M to 10^-9 M, doxorubicin-BSA coated wells

Compound	binding of phage to plastic [1]	binding of display phage to doxorubicin (ELISA, OD405) [2]	IC50 [3, 4] [nM]	blocking/displacement of the interaction of the phage with doxorubicin [3]	IC50 for inhibiting the binding of phages V6 to doxorubicin [3, 4]
VCDWWGWGIC [phage V6]	only background binding	strong specific binding			
COc1cccc2c1C(=O)c1c(O)c3c(c(O)c1C2=O)C[C@@](O)(C(=O)CO)C[C@@H]3O[C@H]1C[C@H](N)[C@H](O)[C@H](C)O1 [doxorubicin]			4.5	could be blocked	
Nc1ccn([C@@H]2O[C@H](CO)[C@@H](O)[C@@H]2O)c(=O)n1 [Ara-C]					essentially inactive
CC[C@]1(O)C[C@@H]2CN(CCc3c([nH]c4ccccc34)[C@@](C(=O)OC)(c3cc4c(cc3OC)N(C)[C@H]3[C@@](O)(C(=O)OC)[C@H](OC(C)=O)[C@]5(CC)C=CCN6CC[C@]43[C@@H]65)C2)C1 [vinblastine]			1.5	displaced; also recorded: could be blocked	
